Assay results reported in patent US20080009025A1, “PROTEIN KINASE REGULATION” (priority 1999, published 2008).
Where a SMILES comes first, the peptide text is derived from it.

Molecular target: T1, PDK1 (Homo sapiens, UniProt O15530)
T1 sequence (O15530 1-556): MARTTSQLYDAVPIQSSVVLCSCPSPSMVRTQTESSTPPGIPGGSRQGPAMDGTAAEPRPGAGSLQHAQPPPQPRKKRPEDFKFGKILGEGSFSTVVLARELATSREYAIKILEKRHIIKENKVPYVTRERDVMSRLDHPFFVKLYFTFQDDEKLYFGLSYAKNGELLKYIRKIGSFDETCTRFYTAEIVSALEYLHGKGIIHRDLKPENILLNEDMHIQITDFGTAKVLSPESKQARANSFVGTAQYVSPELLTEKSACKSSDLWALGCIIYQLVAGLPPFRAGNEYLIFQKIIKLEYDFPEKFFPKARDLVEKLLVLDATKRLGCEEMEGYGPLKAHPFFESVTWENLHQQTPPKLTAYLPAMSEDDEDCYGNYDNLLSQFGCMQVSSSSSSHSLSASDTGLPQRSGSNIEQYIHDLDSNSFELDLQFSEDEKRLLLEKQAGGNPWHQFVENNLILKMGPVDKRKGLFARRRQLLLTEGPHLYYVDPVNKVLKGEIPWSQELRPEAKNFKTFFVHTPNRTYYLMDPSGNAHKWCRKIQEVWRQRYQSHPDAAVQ
Assay: Phosphorylation of GST-p70 S6K-T2 by PDK1 in vitro (32P autoradiography)
Assay type: biochemical
Set-up: made in house; host or cells: 293 cells or E. coli
Details: GST-PDK1 50 nM
Method: FIG. 1. PIF prevents PDK1 from phosphorylating p70 S6K in vitro. GST-p70 S6K lacking the C-terminal 104 amino acids (GST-p70 S6KT2) (1 μg) was incubated for 30 min at 30° C. with Mg [γ^32P] ATP and GST-PDK1 (50 nM) in the presence or absence of either wild type (wt) GST-PIF or D978A GST-PIF (1.5 μM), or the indicated PIF peptides (4 μM) in a final volume of 20 μl. The reactions were terminated by making the solutions 1% in SDS, the samples subjected to SDS-polyacylamide gel electrophoresis, and the phosphorylation assessed by autoradiography of the gel. The position in the gel where GST-p70 S6KT2 (73 kDa) migrates is indicated with an arrow. The only other ^32P-labelled protein on the gel which is not shown, corresponded to autophosphorylation of PDK1 and contained ˜10 fold lower levels of ^32P-radioactivity than that of the GST-p70 S6T2 phosphorylated by PDK1 in the absence of PIF. A high amount of PDK1 is used in this experiment to achieve a near maximal phosphorylation of GST-p70 S6T2. If the reactions were carried out at a 10-fold lower concentration of PDK1 under conditions where the phosphorylation of GST-p70 S6T2 by PDK1 is linear with time and the amount of substrate used, then PIF still prevented the phosphorylation of GST-p70 S6T2 (data not shown). wt indicates wild type and PSer indicates phospho-serine. The results of a duplicate experiment for each condition are shown, and similar findings were obtained in five separate experiments.
Preparation of insect cell His-p70 S6K. p70 S6K with a His-epitope tag at its N-terminus lacking the carboxy terminal 104 residues is termed p70 S6K-T2. In order to prepare wild type and the mutant 412E-p70 S6K-T2 the cDNA for these constructs was amplified by PCR from the pMT2 vector encoding these forms of p70 S6K [6] using the following oligonucleotides: 5′-AGGATCCACCATGCACCATCACCATCACCATATGAGGCGAGCAAGGAGGCGG-3′ and 5′-GCGGCCGCTCAACTTTCAAGTACAGATGGAGCC-3′. The PCR products were then subcloned into the BamH1/Not1 sites of the pFASTBAC 1 vector and this vector was used to generate recombinant baculovirus using the Bac-to-Bac system (Life Technologies Inc). The resulting viruses, encoded p70 S6K-T2 or 412E-p70 S6K-T2 with an N-terminal hexahistidine sequence, and was used to infect Sf21 cells (1.5×10^6/m) at a multiplicity of infection of 5. The infected cells were harvested 72 h post-infection and the His-p70 S6K proteins purified by Ni^2+/NTA (nitrilotriacetic acid)-agarose chromatography as described previously for PKBβ [25]. […]

| Compound | effect on phosphorylation of GST-p70 S6K-T2 by PDK1 (peptide 4 μM) | effect on phosphorylation of GST-p70 S6K-T2 by PDK1 (GST fusion 1.5 μM) |
| --- | --- | --- |
| CC[C@H](C)[C@H](NC(=O)[C@H](CCCNC(=N)N)NC(=O)[C@@H]1CCCN1C(=O)[C@H](CCC(=O)O)NC(=O)[C@@H](N)CCCNC(=N)N)C(=O)N[C@@H](CC(C)C)C(=O)N[C@@H](CO)C(=O)N[C@@H](CCC(=O)O)C(=O)N[C@@H](CCC(=O)O)C(=O)N[C@@H](CCC(=O)O)C(=O)N[C@@H](CCC(N)=O)C(=O)N[C@@H](CCC(=O)O)C(=O)N[C@@H](CCSC)C(=O)N[C@@H](Cc1ccccc1)C(=O)N[C@@H](CCCNC(=N)N)C(=O)N[C@@H](CC(=O)O)C(=O)N[C@@H](Cc1ccccc1)C(=O)N[C@@H](C)C(=O)N[C@@H](Cc1ccc(O)cc1)C(=O)N[C@@H](CC(C)C)C(=O)N[C@@H](C)C(=O)N[C@@H](CC(=O)O)C(=O)N[C@@H](Cc1c[nH]c2ccccc12)C(=O)N[C@@H](CS)C(=O)O [D978A-PIFtide] (H-REPRILSEEEQEMFRDFAYLADWC-OH; N-terminus and C-terminus assumed) | poorly inhibited |  |
| CC[C@H](C)[C@H](NC(=O)[C@H](Cc1ccc(O)cc1)NC(=O)[C@H](CC(=O)O)NC(=O)[C@H](Cc1ccccc1)NC(=O)[C@H](CC(=O)O)NC(=O)[C@H](CCCNC(=N)N)NC(=O)[C@H](Cc1ccccc1)NC(=O)[C@H](CCSC)NC(=O)[C@H](CCC(=O)O)NC(=O)[C@H](CCC(N)=O)NC(=O)[C@H](CCC(=O)O)NC(=O)[C@H](CCC(=O)O)NC(=O)[C@H](CCC(=O)O)NC(=O)[C@H](CO)NC(=O)[C@H](CC(C)C)NC(=O)[C@@H](NC(=O)[C@H](CCCNC(=N)N)NC(=O)[C@@H]1CCCN1C(=O)[C@H](CCC(=O)O)NC(=O)[C@@H](N)CCCNC(=N)N)[C@@H](C)CC)C(=O)N[C@@H](C)C(=O)N[C@@H](CC(=O)O)C(=O)N[C@@H](Cc1c[nH]c2ccccc12)C(=O)N[C@@H](CS)C(=O)O [PIFtide] (H-REPRILSEEEQEMFRDFDYIADWC-OH; N-terminus and C-terminus assumed) | unable to phosphorylate |  |
| GST-PIF: glutathione S-transferase fused to the last 77 residues of PRK2 (PIF) |  | unable to phosphorylate |
